Consider eight molecules from paper PMC9850094, “Chemical synthesis of a reported p47phox/p22phox inhibitor and characterization of its instability and irreproducible activity” (Frontiers in Pharmacology, 2023).

Broadly, the IC50 is the midpoint of a concentration-inhibition curve. In general, Ki refers to a measure of affinity in units of concentration, obtained from inhibition or displacement. For orientation: half-life means the time in which the quantity being followed falls by half. The Kd is the concentration at which binding is half-saturated.

One data set deals with T1, p47phox^SH3A−B (Homo sapiens, UniProt P14598).
T1 sequence (P14598 151-286): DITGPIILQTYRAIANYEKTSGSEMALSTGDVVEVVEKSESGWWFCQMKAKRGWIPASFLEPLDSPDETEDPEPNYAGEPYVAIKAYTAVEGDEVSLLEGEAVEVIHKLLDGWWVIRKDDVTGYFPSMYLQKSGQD
The experiment in a line: Covalent binding assay (LC−MS). The settings on record: 15 min. As for the experimental part:
LC−MS spectra were obtained using the same LC–MS system, solvents, and gradient as for the chemical stability assay, but here the LC–MS was installed with a Poroshell C18 reverse-phase column (Agilent, Poroshell, 300SB-C18, 2.1 × 75 mm). Injection volume was 10 µL and the protein eluted at 3.2 min.
Mass source parameters: Ion polarity, positive mode; drying gas flow, 12 L/min at 250 °C; nebulizer, 35 psig; VCap, 3000 V; Fragmentor, 70 V; mass scan range, 100–2000 m/z. Mass peak deconvolution was carried as described in literature (Winkler, 2010) (https://www.bioprocess.org/esiprot/esiprot_form.php). (A) LC–MS […]
corresponding to the theoretical MW of p47phox SH3A–B (17300.38 Da). (B) LC–MS data of 0.2 mg/mL […]
17300.3 Da and another (see red arrows) is a protein adduct with MW of 17421.9 ± 0.29 Da (ΔMW relative to […]
p47phoxSH3A–B is 122 Da).
MW of 17574.0 Da ± 0.23 Da (ΔMW relative to p47phoxSH3A–B is 274 Da corresponding to an ebselene-protein […]
with p47phoxSH3A–B. Similar to a phenolic Mannich base, the reaction involves an LMH001-derived quinone methide intermediate that reacts with nucleophiles from the protein leading to a +122 Da protein adduct.
(1 picture or pasted object on this page, not shown here)

For data set [1], the system named is p47phox/p22phox interaction. Further details: method as in Smith et al., 2012. The following applies: ref Smith et al., 2012; cited from earlier work.
Data set [2] concerns NOX2. Further details: method as in Fan et al., 2022. The settings on record: COS-phox cells activated by PMA; ref Fan et al., 2022; read-out: IC50, NOX2 superoxide inhibition; cited from earlier work.
Data set [3] in a line: Chemical stability assay (LC−MS). Format: physicochemical. As for the experimental part: A binary solvent system of buffer A (H2O/acetonitrile (MeCN)/formic acid, 95:5:0.1 v/v%) to buffer B (MeCN/formic acid, 99.9:0.1 v/v%) and a flow rate of 1 mL/min was used. Injection volume was 5 µL. Total sample run time was 6 min, and the percentage of buffer B increases from 0% to 100% during 0.25–4.25 min, maintains at 100% until 5 min, then decreases to 0% at 5.10 min, and stays at 0% until 6 min.

For the next data set, the system named is GST-p47phox^SH3A−B. More on the design: method as in Fan et al., 2022. The settings on record: GST-p47phox^SH3A−B / FITC-labelled p22phox^151-162 peptide, ref Fan et al., 2022, cited from earlier work.
For data set [4], the target named is T2, p47phox^SH3A−B (human His-tagged p47phox^151−286) (Homo sapiens, UniProt P14598).
T2 construct: human His-tagged p47phox^151−286
T2 sequence (P14598 151-286): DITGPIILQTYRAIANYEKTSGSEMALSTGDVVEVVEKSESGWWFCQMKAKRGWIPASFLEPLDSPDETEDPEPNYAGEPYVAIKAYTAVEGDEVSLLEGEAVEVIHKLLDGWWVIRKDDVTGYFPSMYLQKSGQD
In words: Fluorescence polarization (FP) competition assay. It counts as binding. The following applies: for Ki: over 2–20 min. Here is the method: Synthesized compounds were then tested for their ability to inhibit the interaction between p47phox^SH3A−B and the fluorescent peptide probes in 1×HBST (2% DMSO). The non-fluorescent p22phox^151−162 peptide (Sequence: Ac-[…]-NH2) was used as a control. […] FP values were fitted to the equation Y = Bottom + (Top-Bottom)/{1 + 10^[(LogIC50-X)*HillSlope]}, where X is the logarithmic value of the compound concentration. Hereby, the IC50 value was obtained, which together with the K d value, probe and p47phox^SH3A−B concentrations was used to calculate the theoretical competitive inhibition constant, the K i value. […] Here, 5 and 8 µM of p47phox^SH3A−B concentration was used for Cy5-p22phox^149−162 and TAMRA-p22phox^151−162, respectively.

Details of data set [5]: method as in Fan et al., 2022. The following applies: mice, iv injection; ref Fan et al., 2022; cited from earlier work.
The next data set concerns the target SH3A−B domain of p47phox. More on the design: method as in Garsi et al., 2022. The following applies: ref Garsi et al., 2022; read-out: Kd (SPR); cited from earlier work.
Data set [6] deals with T3, NOX2 (Homo sapiens, UniProt P04839).
T3 construct: endogenous in cells
T3 sequence (P04839 2-570 limits assumed): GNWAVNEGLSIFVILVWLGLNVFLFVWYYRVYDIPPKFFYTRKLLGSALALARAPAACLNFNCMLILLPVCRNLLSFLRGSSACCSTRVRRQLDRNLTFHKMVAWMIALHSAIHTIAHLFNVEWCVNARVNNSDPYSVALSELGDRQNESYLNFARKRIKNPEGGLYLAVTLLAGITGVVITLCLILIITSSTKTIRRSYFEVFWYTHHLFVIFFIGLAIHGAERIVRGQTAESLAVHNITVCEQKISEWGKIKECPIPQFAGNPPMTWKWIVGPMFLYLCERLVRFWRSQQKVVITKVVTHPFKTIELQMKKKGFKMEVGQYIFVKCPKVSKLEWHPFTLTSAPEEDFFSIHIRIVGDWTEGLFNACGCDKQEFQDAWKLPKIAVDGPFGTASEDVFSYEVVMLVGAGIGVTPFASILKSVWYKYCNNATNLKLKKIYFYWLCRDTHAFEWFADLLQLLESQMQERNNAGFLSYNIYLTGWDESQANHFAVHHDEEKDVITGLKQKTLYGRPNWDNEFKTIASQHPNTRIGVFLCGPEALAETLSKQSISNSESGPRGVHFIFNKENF
T3 sequence (P13498 2-195 partner limits assumed): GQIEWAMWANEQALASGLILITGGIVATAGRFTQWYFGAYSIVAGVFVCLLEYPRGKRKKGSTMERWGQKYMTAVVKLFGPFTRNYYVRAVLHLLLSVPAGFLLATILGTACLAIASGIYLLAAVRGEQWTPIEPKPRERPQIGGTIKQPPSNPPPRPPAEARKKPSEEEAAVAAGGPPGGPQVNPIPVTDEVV
In words: NOX2 cell-based assay (WST1, PMA-activated PLB-985 cells). The settings on record: PMA-stimulated differentiated PLB-985 cells, superoxide (WST1). Here is the method: The assay measures extracellular superoxide generated by PMA-activated NOX2 in PLB-985 cells using the cell-impermeable tetrazolium salt WST1 as probe ([Tan and Berridge, 2000]). […] NOX2 was activated by addition of phorbol-12-myristate-13-acetate PMA (10 nM final). Absorbance (OD440) was measured with a Spectramax Paradigm reader (Molecular Devices) for 3 h. To graph the data, the rate of superoxide was calculated for the first hour.
(Tetrazolium assays rely on reduction of a dye to a coloured formazan, in cell work by metabolically active cells.)

In data set [7] the target is T4, p47phox^SH3A-B (human His-tagged p47phox^151-286) (human, UniProt P14598 151-286).
T4 chain: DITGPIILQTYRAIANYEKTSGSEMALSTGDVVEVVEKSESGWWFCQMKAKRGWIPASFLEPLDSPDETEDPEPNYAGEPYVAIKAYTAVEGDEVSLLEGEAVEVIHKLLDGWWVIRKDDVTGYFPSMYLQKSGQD
The experiment in a line: FP; 1×HBST.

The target in data set [8] is T4, p47phox^SH3A-B (human His-tagged …). The experiment in a line: FP; in water.
Where [9] appears, read: tested as isolated compounds, 1×HBST, Cy5 or TAMRA probe, 2 or 20 min.

Where no end group is shown, it is not given here. TAMRA = carboxytetramethylrhodamine label; Cy5 = cyanine 5 label

As for `O=c1c2ccccc2[se]n1-c1ccccc1` [Ebselen], the “Protein mass increase (ΔMW relative to p47phox^SH3A–B)” value at p47phox^SH3A−B (200 µM compound, 0.2 mg/mL p47phox^SH3A−B, HBST) is 274 Da. Also, the “Conversion of p47phox^SH3A−B to molecular adduct” value on p47phox^SH3A−B (200 µM, HBST) is given as “fully converted”. The IC50 in data set [1] is 0.3 µM.
As to `O=C(OCc1cccc(O)c1O)c1ccc(O)c(CO)c1` [LMH001], the IC50 in the data set with NOX2 [2] was […]; with GST-p47phox^SH3A−B, 0.149 µM. The “Degradation in the HBST buffer as function of pH” value in data set [3] (1×HBST pH 6 to 8, 30 min) is listed as “increased with pH”. The LMH001 remaining in data set [3] (H2O, 5 min) turned out to be 86%; in data set [3] (H2O, 30 min), 76%; in data set [3] (HBST, 5 min, 100 µM, relative to MeCN 5 min) it was 13%; in data set [3] (HBST, 30 min), 3%. In addition, the Ki on GST-p47phox^SH3A−B (read-out: Ki (FP)) is 0.054 µM. Besides, the “p47phox^SH3A−B modified” value at p47phox^SH3A−B (200 µM (17-fold molar excess), HBST) is recorded as 20%–30%. The “Conversion of p47phox^SH3A−B to adduct” value at p47phox^SH3A−B (200 µM, water) is “negligible conversion”. Further, the “Activity in the FP assay” value in data set [4] (up to 400 µM, 1×HBST, Cy5 or TAMRA probe, 2 or 20 min incubation) is “did not show any activity”. Also, in [4] (water instead of 1×HBST, Cy5 or TAMRA probe, 2 or 20 min), the “Activity in the FP assay in pure water” value is “did not result in any measurable activity”. The half-life in [5] is 2.52 min.
In the case of `N=C(N)NCCC[C@@H](CCCCC1CC1)NC(=O)[C@@H]1CCCN1C(=O)[C@@H]1CCCN1C(=O)[C@@H]1CCCN1C(=O)CCC(=O)Nc1cccc(-c2ccc(Cl)c(Cl)c2)c1` [compound 2], the Kd at SH3A−B domain of p47phox is 0.043 µM.
In the case of `O=C(O)c1ccc(O)c(CO)c1` [compound 13], the “IC50, NOX2 inhibition” value against NOX2 [6] is reported as “no activity”. Further, the “Activity in the FP assay” value in [4] (setting [9]) is “inactive”.
On to `OCc1cccc(O)c1O` [compound 15], for which the IC50 on NOX2 [6] (read-out: IC50, NOX2 inhibition) turned out to be 63 µM. Moreover, the “Activity in the FP assay” value in data set [4] (setting [9]) is “inactive”.
Ac-PPTNPPPRPPAE-NH2 [p22phox^151–162]: the Ki lay within 14 to 22 µM in data set [4] (1×HBST, probe Cy5-p22phox^149–162); 17 to 31 µM in [4] (1×HBST, probe TAMRA-p22phox^151–162); 170 to 220 µM in [4] (water, probe Cy5-p22phox^149–162); 140 to 155 µM in data set [4] (water, probe TAMRA-p22phox^151–162).
For the molecule Cy5-KQPPTNPPPRPPAE [cyanine 5 (Cy5)-p22phox^149-162], the Kd in data set [7] stood at 1.9 µM; in data set [8], 12 µM.
For {TAMRA}-PPTNPPPRPPAE [carboxytetramethylrhodamine (TAMRA)-p22phox^151-162] the same measures were 7 µM and 40 µM.
